Assay results reported in patent US7705016B2, “Regulation of food intake by modulation of long-chain fatty acyl-CoA levels in the hypothalamus” (Albert Einstein College of Medicine of Yeshiva University, priority 2003, dated 2010).
“Also recorded” adds a separate entry of the source.

Tests used:
[1] = biological target: T1, hypothalamic CPT1 (Rattus norvegicus, UniProt P32198); assay: Food intake after ICV bolus of CPT1 antagonists; assay type: in vivo; parameters: CPT1 activity was measured in the particulate fraction of protein extracts from animals treated with ICV control injections; from tissue; host or cells: hypothalamus (arcuate nucleus) of male Sprague-Dawley rats, in vivo or ex vivo; conditions: for decrease in daily food intake: 24-48 h after single ICV administration, ST 1326 high dose; for change in food intake from baseline: ST 1326 high dose (25 pmoles); for effect on food intake / feeding behavior: single ICV injection
T1 sequence (P32198 1-773): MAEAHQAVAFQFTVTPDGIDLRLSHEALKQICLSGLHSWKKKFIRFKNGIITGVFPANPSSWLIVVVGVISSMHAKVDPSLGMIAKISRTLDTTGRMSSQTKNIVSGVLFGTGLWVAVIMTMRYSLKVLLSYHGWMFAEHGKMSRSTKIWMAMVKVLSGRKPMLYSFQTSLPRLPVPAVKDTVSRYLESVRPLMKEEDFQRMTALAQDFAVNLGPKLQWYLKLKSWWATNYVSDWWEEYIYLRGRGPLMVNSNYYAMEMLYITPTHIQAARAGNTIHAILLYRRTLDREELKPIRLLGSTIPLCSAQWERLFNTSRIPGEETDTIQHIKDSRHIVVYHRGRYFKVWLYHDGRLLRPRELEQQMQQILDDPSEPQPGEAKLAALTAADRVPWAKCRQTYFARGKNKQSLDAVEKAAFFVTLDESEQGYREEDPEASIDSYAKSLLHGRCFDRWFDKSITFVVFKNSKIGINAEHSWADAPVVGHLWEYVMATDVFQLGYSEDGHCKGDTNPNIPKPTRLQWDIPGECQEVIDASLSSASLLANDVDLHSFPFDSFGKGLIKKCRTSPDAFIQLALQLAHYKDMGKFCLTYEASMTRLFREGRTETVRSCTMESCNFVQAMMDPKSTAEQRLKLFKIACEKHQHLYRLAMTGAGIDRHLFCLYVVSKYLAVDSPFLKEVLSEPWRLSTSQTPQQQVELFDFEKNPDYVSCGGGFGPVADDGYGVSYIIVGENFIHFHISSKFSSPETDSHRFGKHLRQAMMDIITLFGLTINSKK
Experimental: Hypothalamic inhibition of CPT1 decreases food intake. First we examined whether central administration of molecular and pharmacological antagonists of CPT1 modulates feeding behavior in conscious rats (FIG. 3). […] Food intake was monitored in metabolic cages before and up to 72 h after the ICV injections (Obici et al., 2002a). […] The marked effect of ICV CPT1L-Ribo on food intake was significant when compared with either control vector or with an unrelated control ribozyme (FIG. 3c). […] The anorectic effect of central CPT1 inhibition lasted for at least 48 h following a single ICV administration. These decreases in food intake were significant compared with both baseline and vehicle/control (FIG. 3a-e). The changes from baseline induced by CPT1 inhibition were statistically significant at 24 h (−17.6±2.0 g and −12.4±3.9 g), and 48 h (−13.4±1.8 g and −7.8±3.8 g) following ICV administration of CP1L-Ribo and high dose ST 1326, respectively (FIGS. 3b and e). This represented a ˜50% decrease in daily food intake, which returned toward baseline values by 72 h.
Animal preparation for in vivo experiments. We studied ninety-three 10-week old male Sprague-Dawley rats (Charles River Breeding Laboratories, Wilmington, Mass.). Rats were housed in individual cages and subjected to a standard light-dark cycle. Three weeks prior to the in vivo studies, we placed a chronic catheter in the third cerebral ventricle by stereotaxic surgery (Obici et al., 2002a; Obici et al., 2001; Liu et al., 1998). One week before the pancreatic-insulin clamp protocols, we placed additional catheters in the right internal jugular and left carotid artery (Obici et al., 2001; Liu et al., 1998). All ICV solutions were dissolved in artificial cerebral spinal fluid (aCSF). Food intake was monitored daily.
Effect of central inhibition of CPT1 and food intake. We examined the effects of ICV CPT1L-Ribo and ST 1326 on food intake. Three-hours before the start of the dark cycle, CPT1L-Ribo or vector control, ST 1326 or ST 1340 was injected as a bolus via indwelling catheters implanted in the third cerebral ventricle. In the feeding studies, rats received a single bolus injection of 25 pmoles of ST1340 or two different doses (5 and 25 pmoles) of ST1326. Rats were adapted to the metabolic cages and their daily food intake had been constant (changes <10%) for a minimum of three consecutive days preceding the ICV injections. Food intake was continuously monitored for the following 72 h.

[2] = system: PEPCK mRNA; assay: Hepatic PEPCK mRNA after ICV OA (northern blot); assay type: in vivo, rat; conditions: either group (HF55, HF140)
Experimental: Northern Blot Analysis. Total RNA was isolated from hypothalami and liver with Trizol (Invitrogen Corp., California, USA). NPY, Glc-6-Pase or PEPCK expression was measured by northern blot analysis. Hypothalamic RNA was analyzed using probes for prepro-NPY and β-actin. To assess the effect of ICV OA on the expression of hepatic enzymes, total RNA was isolated from freeze-clamped liver tissues from rats subjected to insulin clamp studies. Glc-6-Pase and PEPCK cDNA were obtained as previously described (Combs et al., 2001; Massillon et al., 1996; 1998). Probes were labeled with [α-^32P] dCTP using a random primer kit (Stratagene). Quantification was performed by scanning densitometry, normalizing for β-actin signal and 18S ribosomal RNA to correct for loading variabilities. Effect of ICV OA on the hepatic expression of Glc-6-Pase and PEPCK. The potent effects of the central administration of OA on hepatic glucose fluxes prompted us to examine whether changes in the liver mRNA levels of key metabolic enzymes can partly account for these effects. Thus, we next measured the liver abundance of Glc-6-Pase and PEPCK mRNA as a function of 18S ribosomal RNA (FIG. 9d) or β-actin mRNA (not shown) in tissue samples obtained after ICV infusion of either OA or vehicle in caloric restricted and over-fed rats. […]

[3] = 24 h after single ICV administration
[4] = 48 h after single ICV administration

Row | Compound | inhibition of daily food intake ([1]; 5 pmoles single ICV injection) | food intake on day 3 compared to control group ([1]; 25 pmoles (high dose) single ICV injection, day 3) | inhibition of daily food intake ([1]; 25 pmoles single ICV injection) | decrease in daily food intake [1] [%] | change in food intake from baseline [1, 3] [g] | change in food intake from baseline [1, 4] [g] | effect on food intake / feeding behavior [1] | liver expression of PEPCK [2] | average food intake ([1]; first night following ICV administration) [gr./day]
1 | CCCCCCCCCCCCCCNC(=O)N[C@H](CC(=O)[O-])C[N+](C)(C)C [ST1326, (R)-N-(tetradecylcarbamoyl)-aminocarnitine] | statistically significant on day 1 and 2 | significantly lowered food intake | statistically significant on day 1 and 2 | ~50 | -12.4 ± 3.9 | -7.8 ± 3.8 | markedly inhibited food intake |  | 
2 | CCCCCCCC/C=C\CCCCCCCC(=O)O [OA, oleic acid] |  |  |  |  |  |  |  | failed to significantly alter | 
3 | CPT1L-Ribo: plasmid (pTarget, CMV promoter) expressing a hammerhead ribozyme that specifically cleaves rat CPT1L mRNA, complexed to PEI for ICV injection (DNA CUGUACCAAAGAGCUGUAGAGUCCGUGAGGACGAAACGCCGCUCACAAUG) |  |  |  | ~50 | -17.6 ± 2.0 | -13.4 ± 1.8 | significantly suppressed from day 1 to day 3; also recorded: rapid onset of anorexia |  | 13.0±1.9
